Experimental findings from patent publication US20210227825A1, “SAFENER” (Nippon Soda Co., Ltd., priority 2018, published 2021) are described below.

In the assay the test system is rice seedling (variety: Koshihikari). Description: Rice hydroponics test tube test, number of new roots after 5 days (Example 5, Comparative Examples 1 and 2). The settings on record: for safener effect on inhibition of new root development by pyrazosulfuron-ethyl: 0.01 mg pyrazosulfuron-ethyl in 1 L hydroponics solution; for Condition of new roots in test tube of safener composition: 0.01 mg pyrazosulfuron-ethyl plus the safener (0.1 ml safener (A) or 0.01 mg comparative) in 1 L hydroponics solution. Type of assay: in vivo. How it is done:
One rice seedling (variety: Koshihikari) in the two-leaf stage was transplanted into the test tube. This was placed in an artificial meteorological instrument set to 16 hours (25° C.) in the light period and 8 hours (20° C.) in the dark period. After a lapse of 5 days, the number of new roots was counted. This test was performed a total of 6 times. An average value was calculated from the measured values for 6 times.
A comparative safener composition (1) was obtained by the same method as that for the safener composition (2), with the exception that 0.1 ml of the safener (A) of Example 5 was replaced with a solution obtained by dissolving 0.01 mg of α-naphthylacetamide in 10 μl of DMSO.
A comparative safener composition (2) was obtained by the same method as that for the safener composition (2), with the exception that 0.1 ml of the safener (A) of Example 5 was replaced with a solution obtained by dissolving 0.01 mg of indole butyric acid in 10 μl of DMSO.

In the case of indole butyric acid, the “safener effect on inhibition of new root development by pyrazosulfuron-ethyl” value is given as “no safener effect” and the “Condition of new roots in test tube of safener composition” value is 5.0 roots.

As for `NC(=O)Cc1cccc2ccccc12` [α-Naphthylacetamide, α-naphthylacetamide], the “safener effect on inhibition of new root development by pyrazosulfuron-ethyl” value is “no safener effect” and the “Condition of new roots in test tube of safener composition” value amounted to 3.3 roots.
